Data set [1] deals with Ramos B cells. Briefly: Propidium iodide staining to quantify cell death after inhibitor titration. The data set is classed as cell-based, human. The note with it: 25 uM FITC-conjugated inhibitor, 2 hours. As for the experimental part:
Peptide inhibitor titration and uptake. Ramos B cells or THP1 cells were treated with 0.025, 0.25, 2.5, and 25 uM of FITC conjugated peptide inhibitors for 2 hours. Cells were washed, stained with propidium iodide, and immediately analyzed by flow cytometry for uptake of FITC peptide. For uptake experiments in PBMCs, cells were incubated with 10 uM of either mock, scrambled, N-term′ NLS, or C-term′ NLS FITC conjugated inhibitor for 2 hours. Cells were then washed and blocked as previously outlined, and subsequently stained with CD19-BV510 and CD14-PE (Biolegend Catalog #301806). Cells were fixed, stained with DRAQ5 nuclear dye and analyzed by imagestream for uptake of FITC peptide.
IRF5 Peptide Inhibitors readily enter the cell and have low associated toxicity. IRF5 peptide inhibitors were conjugated to FITC moieties to measure cellular uptake over a dose-dependent response. Ramos B cells were treated with increasing concentrations of FITC-conjugated inhibitor for 2 hours. Cells were washed and subsequently treated with propidium iodide to quantify cell death. […] Cell cycle was measured through propidium iodide incorporation, and quantified through flow cytometry. […] To determine if it would be possible to increase uptake of the inhibitor in B cells, uptake following incubation with 10 uM for 1 hour was measured.

For data set [2], the system named is Ramos B cells. Briefly: Tryphan blue staining for cell viability after 24 hours with inhibitor. The note with it: 25 uM. The data set is classed as cell-based, human. The procedure: IRF5 Peptide Inhibitors readily enter the cell and have low associated toxicity. IRF5 peptide inhibitors were conjugated to FITC moieties to measure cellular uptake over a dose-dependent response. Ramos B cells were treated with increasing concentrations of FITC-conjugated inhibitor for 2 hours. Cells were washed and subsequently treated with propidium iodide to quantify cell death. While at the lower doses of 0.025 and 0.25 uM minimal uptake was seen, at 2.5 uM however, greater than 95% of cells were positive for the FITC-conjugated inhibitor (FIG. 1A). In addition, less than 3% of cells stained positive for propidium iodide, indicating low toxicity for the inhibitor at this dose. […] However, no significant increase in uptake was seen between 2.5 uM and 25 uM concentrations of inhibitor. To ensure no impact on cell viability from treatment with the inhibitors, Ramos B cells were treated with varying concentrations of inhibitor as used previously for the titration experiments for 24 hours, and tryphan blue staining was subsequently performed. […] Cell cycle was measured through propidium iodide incorporation, and quantified through flow cytometry. […] To determine if it would be possible to increase uptake of the inhibitor in B cells, uptake following incubation with 10 uM for 1 hour was measured.

For data set [3], the target named is T1, IRF5 (Homo sapiens, UniProt Q13568).
T1 construct: endogenous in cells; host or cells: healthy-donor human PBMCs; CD14+ monocytes and CD19+ B cells
T1 sequence (Q13568 1-498): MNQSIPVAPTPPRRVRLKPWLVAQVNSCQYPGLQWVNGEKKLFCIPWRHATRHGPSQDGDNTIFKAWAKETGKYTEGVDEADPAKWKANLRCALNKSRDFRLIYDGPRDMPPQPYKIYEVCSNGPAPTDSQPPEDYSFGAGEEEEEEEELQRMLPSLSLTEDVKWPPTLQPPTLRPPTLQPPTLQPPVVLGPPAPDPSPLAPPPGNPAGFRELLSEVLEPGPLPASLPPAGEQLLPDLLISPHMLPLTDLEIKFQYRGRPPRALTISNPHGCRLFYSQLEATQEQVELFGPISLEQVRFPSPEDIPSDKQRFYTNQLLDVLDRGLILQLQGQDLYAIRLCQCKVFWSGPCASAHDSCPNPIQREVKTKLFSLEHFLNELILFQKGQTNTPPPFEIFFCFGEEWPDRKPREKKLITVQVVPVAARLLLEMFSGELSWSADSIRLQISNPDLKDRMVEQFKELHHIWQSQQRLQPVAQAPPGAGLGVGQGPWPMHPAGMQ
Description: Cell fractionation and Western blot of nuclear IRF5 in primary monocytes. The class given is cell-based. The note with it: isolated primary monocytes, inhibitor then R848 stimulation. As for the experimental part: (§1) FIGS. 2A-E. Peptides (non-FITC-conjugated) inhibit R848-induced IRF5 nuclear translocation. Healthy donor PBMCs were pre-incubated with peptide inhibitors for 1 hour and then stimulated for 2 hours with the Toll-like receptor agonist R848. IRF5 cellular localization was determined in CD14+ monocytes (FIG. 2A) and CD19+ B cells (FIG. 2B) by staining with intracellular IRF5 and DRAQ5. Similarity scores between IRF5 and DRAQ5 were determined on the Amnis Imagestream using IDEAS software. […] Lamin B1 serves as a nuclear protein loading control. […] IRF5 band intensity was normalized by Lamin B1, and relative fold change of IRF5 in nuclear portion was calculated over PBS treated sample. In FIGS. 2A-B and E, the bar on the left is mock (NT) and the bar on the right is R848.
Cell Fractionation. Cells were fractionated according to manufacturer's protocol (Cell Signaling, Cell fractionation kit, #9038). Following fractionation, lysates were sonicated and boiled. Nuclear fraction was analyzed by Western blot as follows: 30 μL of lysate was loaded onto a 3-8% NuPAGE® Novex® Tris-Acetate gel (Life Technologies, #EA0378BOX), and transferred onto a 0.45 μm nitrocellulose membrane (Bio-Rad Laboratories). […] Membrane was incubated with Clarity™ ECL Western Blotting Substrate (Bio-Rad Laboratories) and chemiluminescence detected with a ChemiDoc™ MP Imaging System (Bio-Rad Laboratories). […]
Background: Immunoblotting shows a protein as a band on a membrane.

For data set [4], the target named is T1, IRF5. Description: R848-induced IRF5 nuclear translocation in PBMCs by imaging flow cytometry. The class given is cell-based. The note with it: inhibitor 1 hour, then 500 ng/mL R848 2 hours, vs scrambled control. As for the experimental part:
as §1, with “control. Cells were pre-incubated with the indicated inhibitors for 1 hour and then stimulated with LPS for 2 hours.” for “control.”, “In FIGS. 2A-B and E, the bar on the left is mock (NT) and the bar on the right is R848.” left out
Imaging Flow Cytometry. […] Nuclear translocation was quantified in the Amnis IDEAS software suite. […] Finally, IRF5 nuclear translocation was determined through use of the similarity score feature contrasting IRF5 staining with DRAQ5 staining. […]
IRF5 peptide inhibitor blocks IRF5 nuclear translocation in both B cells and monocytes. […] As IRF5 has been implicated in the onset of autoimmune diseases in both monocytes and B cells, it was sought to be determined if IRF5 nuclear translocation could be inhibited in both cell populations following stimulation with the TLR7 agonist R848. […]
A general note: In flow cytometry, cells or beads pass a laser one at a time.

The record followed here is patent publication US11746133B2, “Cell penetrating peptides that inhibit IRF5 nuclear localization” (Rutgers, The State University of New Jersey, priority 2015, dated 2023).

Residues, ends and D or L forms follow the SMILES beside them.

On to `CC[C@H](C)[C@H](NC(=O)[C@H](CCCCN)NC(=O)[C@@H](NC(=O)[C@H](CCC(N)=O)NC(=O)[C@H](CCCNC(=N)N)NC(=O)[C@@H](N)CC(=O)O)[C@@H](C)CC)C(=O)N[C@@H](Cc1c[nH]c2ccccc12)C(=O)N[C@@H](Cc1ccccc1)C(=O)N[C@@H](CCC(N)=O)C(=O)N[C@@H](CC(N)=O)C(=O)N[C@@H](CCCNC(=N)N)C(=O)N[C@@H](CCCNC(=N)N)C(=O)N[C@@H](CCSC)C(=O)N[C@@H](CCCCN)C(=O)N[C@@H](Cc1c[nH]c2ccccc12)C(=O)N[C@@H](CCCCN)C(=O)N[C@@H](CCCCN)C(=O)N1CCC[C@H]1C(=O)N[C@@H](CCCNC(=N)N)C(=O)N[C@@H](CCCNC(=N)N)C(=O)N[C@H](C(=O)N[C@@H](CCCNC(=N)N)C(=O)N[C@@H](CC(C)C)C(=O)N[C@@H](CCCCN)C(=O)O)C(C)C` [IRF5 5′NLS] (H-DRQIKIWFQNRRMKWKKPRRVRLK-OH), for which the “associated toxicity (propidium iodide)” value in data set [1] is “minimal associated toxicity”.

For `CC[C@H](C)[C@H](NC(=O)[C@H](CCCCN)NC(=O)[C@@H](NC(=O)[C@H](CCC(N)=O)NC(=O)[C@H](CCCNC(=N)N)NC(=O)[C@@H](N)CC(=O)O)[C@@H](C)CC)C(=O)N[C@@H](Cc1c[nH]c2ccccc12)C(=O)N[C@@H](Cc1ccccc1)C(=O)N[C@@H](CCC(N)=O)C(=O)N[C@@H](CC(N)=O)C(=O)N[C@@H](CCCNC(=N)N)C(=O)N[C@@H](CCCNC(=N)N)C(=O)N[C@@H](CCSC)C(=O)N[C@@H](CCCCN)C(=O)N[C@@H](Cc1c[nH]c2ccccc12)C(=O)N[C@@H](CCCCN)C(=O)N[C@@H](CCCCN)C(=O)N1CCC[C@H]1C(=O)N[C@@H](CCCCN)C(=O)N[C@@H](CCCNC(=N)N)C(=O)N[C@@H](CCCNC(=N)N)C(=O)N[C@@H](CCCNC(=N)N)C(=O)N[C@@H](CC(C)C)C(=O)N[C@H](C(=O)O)C(C)C` [Scrambled 5′NLS] (H-DRQIKIWFQNRRMKWKKPKRRRLV-OH; N-terminus and C-terminus assumed), the “associated toxicity (propidium iodide)” value in data set [1] is “minimal associated toxicity”. Also, the “viability by tryphan blue staining” value in data set [2] is listed as “decrease in viability”.

Take DRQIKIWFQNRRMKWKKPREKKLI [IRF5 3′NLS]: in data set [3], the “levels of IRF5 in the nucleus (cell fractionation, Western blot)” value is “Reduced levels of IRF5”. In addition, in data set [4], the “IRF5 nuclear translocation in B cells” value is reported as “no inhibition” and the “IRF5 nuclear translocation in monocytes” value is recorded as “only slightly reduced nuclear translocation”.
